Values belong to the compound of their own block, whether it stands above or below them.
Legend:
[1] = molecular target: T1, PhNSun6 (PH1991) (Pyrococcus horikoshii, UniProt O57712); experiment: X-ray crystal structure of the complex, […] A; assay type: binding; settings: co-crystallised with 1 mM ligand, pH 6.5, 16 °C; Rossmann-fold cofactor site; no tRNA
T1 construct: full length (domains mapped to residues 1-389); E. coli Rosetta (DE3); 2 chains in P1 crystal
T1 sequence (O57712 1-389): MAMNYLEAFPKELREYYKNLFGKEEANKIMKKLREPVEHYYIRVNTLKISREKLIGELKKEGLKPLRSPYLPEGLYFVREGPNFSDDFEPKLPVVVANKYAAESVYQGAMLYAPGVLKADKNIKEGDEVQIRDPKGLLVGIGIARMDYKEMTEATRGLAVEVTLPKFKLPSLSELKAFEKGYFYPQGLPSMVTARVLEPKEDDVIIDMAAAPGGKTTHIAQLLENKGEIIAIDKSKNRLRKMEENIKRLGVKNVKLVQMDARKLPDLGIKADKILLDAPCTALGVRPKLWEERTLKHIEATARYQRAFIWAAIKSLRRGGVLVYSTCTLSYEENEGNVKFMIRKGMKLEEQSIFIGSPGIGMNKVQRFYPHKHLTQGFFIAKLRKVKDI

[2] = molecular target: T1, PhNSun6 (PH1991); experiment: X-ray crystal structure of the complex, […] A; assay type: binding; settings: co-crystallised with 1 mM ligand, pH 6.5, 16 °C, Rossmann-fold cofactor site, no tRNA

Structure (SMILES): Nc1ncnc2c1ncn2[C@@H]1O[C@H](CSCC[C@H](N)C(=O)O)[C@@H](O)[C@H]1O [SAH, S-adenosyl-homocysteine]
X-ray crystal structure of the complex, 2.18 A [1]: form the binding pocket for the cofactor SAH, as shown in Figure 5B

X-ray crystal structure of the complex, 2.50 A ([2]; methyl donor, also turned over with tRNA at 65 °C, pH 7.5): PhNSun6 complexed with SAM, SFG and SAH
Structure (SMILES): C[S+](CC[C@H](N)C(=O)O)C[C@H]1O[C@@H](n2cnc3c(N)ncnc32)[C@H](O)[C@@H]1O (stereo partly drawn) [SAM, S-adenosyl-methionine]

X-ray crystal structure of the complex, 2.50 A [2]: PhNSun6 complexed with SAM, SFG and SAH
Structure (SMILES): Nc1ncnc2c1ncn2[C@@H]1O[C@H](C[C@@H](N)CC[C@H](N)C(=O)O)[C@@H](O)[C@H]1O [SFG, sinefungin]
